Laboratory results reported in the supplement of paper PMC10331698.
± gives the standard deviation of the averaged measurements.

Experiments:
Assay in all cases: level (log10 ratio to DMSO vehicle control); higher = higher biomarker level / cell amount than vehicle control
Methotrexate = compound: CN(Cc1cnc2nc(N)nc(N)c2n1)c1ccc(C(=O)N[C@@H](CCC(=O)O)C(=O)O)cc1 [Methotrexate]; conditions: in DMSO
Method: (§1)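 BioMAP Diversity Plus panel of 12 human primary cell co-culture systems (3C, 4H, LPS, SAg, BT, BF4T, BE3C, CASM3C, HDF3CGF, KF3CT, MyoF, Mphg). Compounds were added 1 h before stimulation and left for 24 h (MyoF 48 h; BT 72 h for soluble read-outs or 6 d for IgG). Biomarkers were read by ELISA, cytotoxicity by SRB, PBMC viability and proliferation by Alamar Blue. Each well value was divided by the mean of 8 DMSO control wells on the same plate and log10 transformed; duplicate blinded samples were tested at 4 concentrations.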

[1] = compound: FC(F)(F)C(F)(F)C(F)(F)C(F)(F)CCI [1H,1H,2H,2H-Perfluorohexyl iodide]; conditions: in DMSO
Method: as §1

[2] = compound: FC(F)(F)COC(OCC(F)(F)F)OCC(F)(F)F [tris(Trifluoroethoxy)methane]; conditions: in DMSO
Method: as §1

Tetrafluorosuccinic acid = compound: O=C(O)C(F)(F)C(F)(F)C(=O)O [Tetrafluorosuccinic acid]; conditions: in DMSO
Method: as §1

[3] = compound: OCC(F)(F)C(F)(F)C(F)(F)C(F)(F)C(F)(F)C(F)(F)C(F)(F)C(F)(F)C(F)(F)C(F)(F)C(F)(F)F [11:1 Fluorotelomer alcohol]; conditions: in DMSO
Method: as §1

[4] = compound: OCC(F)(F)C(F)(F)C(F)(F)C(F)(F)C(F)(F)C(F)(F)F [6:1 Fluorotelomer alcohol]; conditions: in DMSO
Method: as §1

[5] = compound: OCCCC(F)(F)C(F)(F)C(F)(F)C(F)(F)C(F)(F)C(F)(F)C(F)(F)C(F)(F)F [3-(Perfluorooctyl)propanol]; conditions: 6700 nM; in DMSO
Method: as §1

Test System	level (log10) (Methotrexate; 1500 nM)	level (log10) (Methotrexate; 4400 nM)	level (log10) (Methotrexate; 13000 nM)	level (log10) (Methotrexate; 40000 nM)	level (log10) ([1]; 6700 nM)	level (log10) ([1]; 20000 nM)	level (log10) ([1]; 60000 nM)	level (log10) ([2]; 6700 nM)	level (log10) ([2]; 20000 nM)	level (log10) ([2]; 60000 nM)	level (log10) (Tetrafluorosuccinic acid; 6700 nM)	level (log10) (Tetrafluorosuccinic acid; 20000 nM)	level (log10) (Tetrafluorosuccinic acid; 60000 nM)	level (log10) ([3]; 1100 nM)	level (log10) ([3]; 3300 nM)	level (log10) ([3]; 10000 nM)	level (log10) ([4]; 6700 nM)	level (log10) ([4]; 20000 nM)	level (log10) ([4]; 60000 nM)	level (log10) [5]
LPS:CD106/VCAM-1	0.0075 ± 0.03	-0.0065 ± 0.011	0.0085 ± 0.00071	-0.0145 ± 0.005	0.01	-0.0195 ± 0.005	-0.026 ± 0.016	-0.025 ± 0.027	0.011 ± 0.013	0.002 ± 0.037	-0.0245 ± 0.026	-0.007 ± 0.0057	0.002 ± 0.018	-0.025 ± 0.0042	-0.025 ± 0.02	-0.015 ± 0.0028	-0.033 ± 0.023	-0.041 ± 0.016	-0.023 ± 0.02	-0.158 ± 0.17
BE3C:CXCL10/IP-10	0.003 ± 0.051	0.0105 ± 0.032	0.0195 ± 0.019	0.011 ± 0.038	0.008 ± 0.0099	0.0015 ± 0.0092	0.001 ± 0.021	-0.001 ± 0.0085	-0.0035 ± 0.018	0.0095 ± 0.0021	-0.007 ± 0.0028	-0.009 ± 0.0057	-0.0125 ± 0.0035	-0.0345 ± 0.035	-0.0745 ± 0.03	-0.043 ± 0.0071	0.0355 ± 0.005	0.028 ± 0.011	0.0075 ± 0.025	-0.009 ± 0.0099
BF4T:PAI-I	-0.002 ± 0.014	-0.0075 ± 0.0078	-0.0065 ± 0.0078	-0.002 ± 0.0071	0.0075 ± 0.0078	0.008 ± 0.018	0.01 ± 0.038	0.0025 ± 0.023	-0.012 ± 0.0042	0.007	-0.0075 ± 0.012	-0.0025 ± 0.018	0.0035 ± 0.00071	-0.003 ± 0.011	-0.003 ± 0.0042	0.002 ± 0.027	-0.001 ± 0.0028	-0.012	0.002 ± 0.021	-0.016 ± 0.024
4H:VEGFR2	-0.0035 ± 0.04	-0.028 ± 0.035	-0.014 ± 0.017	0.022 ± 0.0057	-0.029 ± 0.065	-0.058	-0.0605 ± 0.043	-0.0045 ± 0.023	0.006 ± 0.017	0.006 ± 0.021	-0.032 ± 0.014	-0.027	0.007 ± 0.11	-0.027 ± 0.023	-0.0135 ± 0.033	-0.008 ± 0.048	0.0035 ± 0.042	-0.005 ± 0.013	0.012 ± 0.023	-0.013 ± 0.0085
LPS:CD62E/E-Selectin	-0.01 ± 0.024	-0.0185 ± 0.0021	0.005 ± 0.0014	0.005 ± 0.025	0.0035 ± 0.022	-0.0105 ± 0.018	-0.0095 ± 0.012	-0.009 ± 0.033	-0.005	-0.009 ± 0.0071	0.0155 ± 0.036	0.003 ± 0.011	0.0275 ± 0.013	0.016 ± 0.0085	0.01 ± 0.0099	0.015 ± 0.014	0.001 ± 0.018	-0.013 ± 0.011	-0.014 ± 0.0071	-0.148 ± 0.079
LPS:CXCL8/IL-8	-0.015 ± 0.0085	-0.001 ± 0.013	0.0045 ± 0.0021	0.0055 ± 0.013	0.008 ± 0.034	0.021 ± 0.033	0.0375 ± 0.057	-0.0245 ± 0.049	-0.0285 ± 0.022	0.0315 ± 0.08	-0.0065 ± 0.00071	-0.003 ± 0.016	0.009 ± 0.02	-0.007 ± 0.011	-0.013 ± 0.0014	-0.0305 ± 0.039	0.002 ± 0.011	-0.007 ± 0.018	0.0235 ± 0.0021	-0.132 ± 0.014
LPS:sPGE2	0.011 ± 0.025	-0.0045 ± 0.057	-0.0135 ± 0.067	-0.0235 ± 0.021	-0.004 ± 0.014	-0.002 ± 0.017	0.0245 ± 0.03	-0.0105 ± 0.022	-0.0085 ± 0.0035	0.0185 ± 0.013	0.0125 ± 0.032	-0.002 ± 0.047	0.054 ± 0.031	0.151 ± 0.075	0.212 ± 0.0064	0.211 ± 0.044	-0.0055 ± 0.028	0.004 ± 0.0099	0.005 ± 0.03	-0.061 ± 0.061
BE3C:CXCL9/MIG	0.006 ± 0.0071	0.013 ± 0.0028	0.013 ± 0.014	0.01 ± 0.0057	0.006 ± 0.0085	0.002 ± 0.016	0.0165 ± 0.028	0.001 ± 0.0071	0.0025 ± 0.023	-0.0045 ± 0.018	0.005 ± 0.0071	0 ± 0.0085	0.0075 ± 0.0092	-0.0195 ± 0.00071	-0.03 ± 0.0028	-0.0385 ± 0.022	-0.005 ± 0.013	-0.002 ± 0.0099	-0.545 ± 0.4	-0.0045 ± 0.018
LPS:SRB	-0.0005 ± 0.013	0.001	0.0015 ± 0.00071	0.005 ± 0.011	0.019 ± 0.023	0.0125 ± 0.035	0.007 ± 0.024	-0.0065 ± 0.0021	-0.0015 ± 0.011	-0.0015 ± 0.0078	-0.0055 ± 0.013	-0.008 ± 0.0014	-0.017 ± 0.0042	-0.029 ± 0.0099	-0.0455 ± 0.0021	-0.036 ± 0.0014	-0.005 ± 0.0014	-0.0105 ± 0.005	-0.0005 ± 0.0092	-0.033 ± 0.018
SAg:CCL2/MCP-1	-0.0055 ± 0.12	-0.037 ± 0.028	-0.009 ± 0.024	-0.0075 ± 0.05	-0.0075 ± 0.015	0.004 ± 0.0014	-0.015 ± 0.018	-0.0215 ± 0.0035	-0.0215 ± 0.0064	0.0105 ± 0.022	-0.006 ± 0.02	-0.0095 ± 0.0035	-0.0085 ± 0.0064	0.0095 ± 0.0078	-0.013 ± 0.044	0.0225 ± 0.039	-0.002 ± 0.0057	-0.0085 ± 0.005	0.0175 ± 0.025	-0.0025 ± 0.021
BT:sIL-17A	-0.0735 ± 0.14	-0.02 ± 0.058	-0.002 ± 0.11	-0.197 ± 0.18	0.0075 ± 0.12	0.028 ± 0.011	-0.249 ± 0.1	-0.0445 ± 0.0078	-0.126 ± 0.15	0.079 ± 0.02	-0.0215 ± 0.084	-0.0995 ± 0.00071	-0.074 ± 0.021	0.329 ± 0.16	0.401 ± 0.032	0.325 ± 0.06	-0.063 ± 0.088	-0.107 ± 0.11	-0.475 ± 0.093	0.023 ± 0.028
